In paper PMC8480759, “Inhibitors of histone deacetylase 6 based on a novel 3-hydroxy-isoxazole zinc binding group” (Journal of Enzyme Inhibition and Medicinal Chemistry, 2021):

Test system: acetylation levels of α-tubulin (HDAC6 target) in DU145 cells
Assay: Western blot of α-tubulin acetylation in DU145 cells
Format: cell-based, human
Settings: 24 h, 10 µM
Method: The results corroborate the inhibitory activity of 17, 23, 25 and 27 at concentrations lower than 10 µM. […] HDACs contribution to CRPC is known[20] and the possibility to arrest CRPC proliferation by acting on HDAC targets is expanding in the scientific literature[21]^,[22]. After administration of the selected compounds for 24 h at 10 µM concentration, the effect on the acetylation levels of histone H3 and α-tubulin (respectively, HDAC1 and HDAC6 targets) was investigated. […] Lastly, in the same cell line, the anti-proliferative effect was measured in dose and time dependent manner (Figure S4).
Figure S3. Western blotting analysis of the tested and reference compounds SAHA and Tubastatin A on acetylation levels of histone H3 and α-tubulin in DU145 cells. GAPDH and H4 were used as a loading control. Densitometric values were analyzed using ImageJ Software and are reported on the top of bands as the ratio between loading control and acetylated target. […]
The resulting mixtures were incubated at 37 °C for 45min , after which 25 µL of 2X HDAC developer were added. Following incubation at RT for 15 min, fluorescence intensity was measured using a microplate reader (GloMax Discover System, Promega) at 365nm excitation and […] emission wavelengths.
IC50 values were calculated using the GraphPad Prism 6 program based on a log(inhibitor) vs response (variable slope) sigmoidal equation. […]

For `Oc1cc(-c2ccc3c(c2)OCO3)on1` [Compound 25], the “effect on acetylation of α-tubulin” value was “increased”.

With `Oc1cc(-c2ccc(NCc3ccccc3)cc2)on1` [Compound 23] the “effect on acetylation of α-tubulin” value was “increased”.
